Source: paper PMC10877568 (ACS Chemical Biology, 2024)

Experiments:
Type in all cases: binding
[1] = biological target: T1, Siglec-9 V-set domain (Siglec-9d1) (Homo sapiens, UniProt Q9Y336, C36S); assay: 1H-15N HSQC NMR titration
mVENUS = assay: STD-NMR control experiment with mVENUS
[2] = biological target: T1, Siglec-9 V-set domain (Siglec-9d1); assay: Isothermal titration calorimetry

T1 sequence (Q9Y336 18-144 C36S): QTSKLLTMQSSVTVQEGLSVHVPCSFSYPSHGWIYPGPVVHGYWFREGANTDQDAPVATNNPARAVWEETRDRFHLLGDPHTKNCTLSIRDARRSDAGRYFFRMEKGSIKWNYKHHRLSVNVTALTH

Kd [1]	STD NMR signals on binding to mVENUS (mVENUS)	ΔH ([2]; ITC, Siglec-9d1)	fold higher affinity for Siglec-9 than the glycan with unsubstituted Neu5Ac ([2]; comparison with the unsubstituted glycan)	fold higher affinity toward Siglec-9 than BTCNeu5Ac ([2]; from ITC KD values)	Compound
499 ± 74 µM	did not produce any STD NMR signals				CC(=O)N[C@H]1[C@H]([C@H](O)[C@H](O)CO)O[C@@](O[C@H]2[C@@H](O)[C@@H](CO)O[C@@H](O[C@@H]([C@H](O[C@@H]3O[C@@H](C)[C@@H](O)[C@@H](O)[C@@H]3O)[C@H](C=O)NC(C)=O)[C@H](O)CO)[C@@H]2O)(C(=O)O)C[C@@H]1O [sLeX, Neu5Ac(α2-3)Gal(β1-4)[Fuc(1-3)]GlcNAc]
		-10.2 kcal/mol	> 20 fold	approximately 2 fold	9N-[5-(2-methylthiazol-4-yl)thiophene sulfonamide]-Neu5Acα(2–6)Galβ(1–4)GlcNAc [^MTTSNeu5Ac]
